This note sets out measurements from patent US20010044425A1, “Compositions useful in the treatment of diseases of connective tissues” (priority 2000, published 2001).

The assay has as its system cartilage precursor cells from the developing limb bud of normal chick embryos. As to the kind of experiment: Cartilage development in micromass cultures of cartilage precursor cells. Type of assay: cell-based.
[1] abbreviates: varying doses of the salt added to basic culture medium (about 0.6 μg/ml ferrous sulphate, about 75 μg/ml ascorbic acid) vs control group without addition, FIG. 2, FIG. 4.

Entries after “also recorded” stand apart in the source; their conditions may differ. Where two headings read alike, the source gives them in different places.

As for ferrous ascorbate, the “cartilage development (amount of cartilage produced)” value (“cartilage development” below) under setting [1] is reported as “significantly enhanced cartilage production”.

As to `O=C([O-])/C=C/C(=O)[O-].[Fe+2]` [ferrous fumarate], the “cartilage development” value under setting [1] is reported as “significantly enhanced cartilage production”.

Turning to `O=S(=O)([O-])[O-].[Co+2]` [cobalt (II) sulphate], the “cartilage development” value is “No statistically significant increase in cartilage development; also recorded: significantly reduce the amount of cartilage produced in a dose-dependent manner”.

Consider `O=S(=O)([O-])[O-].[Fe+2]` [ferrous sulphate], for which the “cartilage development” value is given as “significantly enhanced cartilage development in a dose-dependent manner” and the “cartilage production when combined with ascorbic acid” value is reported as “significantly enhanced the cartilage production”.

For `O=S(=O)([O-])[O-].[K+].[K+]` [potassium sulphate], the “cartilage development” value is listed as “No statistically significant increase in cartilage development”.

In the case of `O=C1O[C@H]([C@@H](O)CO)C(O)=C1O` [ascorbic acid], the “cartilage development” value (ascorbic acid 75 or 150 μg/ml added vs control with no ascorbic acid added, FIG. 1) was “significantly enhances cartilage development in a dose-dependent manner”.

Regarding `O=S(=O)([O-])[O-].O=S(=O)([O-])[O-].O=S(=O)([O-])[O-].[Fe+3].[Fe+3]` [ferric sulphate], the “cartilage development” value was “no statistically significant difference”.

Regarding `O=S(=O)([O-])[O-].[Zn+2]` [zinc sulphate], the “cartilage development” value was “no statistically significant increase in cartilage development”.
